Measurements taken from PubChem BioAssay (NCI).
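In this assay, cells in 96-well plates receive the compound at five concentrations for 48 hours. Endpoints are linearly interpolated between the surrounding concentrations. At the GI50, growth is halved. TGI: total growth inhibition.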

Columns and labels:
Experiment in all cases: DTP human tumour cell line panel, 48 h
[1] = test system: UACC-257 melanoma
[2] = test system: A549 NSCLC
[3] = test system: CCRF-CEM leukemia
[4] = test system: U251 CNS
[5] = test system: OVCAR-3 ovarian
[6] = test system: A498 renal
[7] = test system: HCC-2998 colon
[8] = test system: HL-60(TB) leukemia
[9] = test system: SNB-19 CNS
[10] = test system: HOP-92 NSCLC

For Cc1ccc(C#CS(=O)(=O)C(F)(F)F)cc1, the TGI [1] was > 100 µM, the TGI [2] was > 100 µM and the TGI [3] was > 100 µM. For the same compound, the TGI [4] was > 100 µM, the TGI [5] was > 100 µM and the TGI [6] was > 100 µM. The TGI [7] was > 100 µM, the TGI [8] was > 31.6 µM and the TGI [9] was > 100 µM. The TGI [10] was > 100 µM.
O=C(c1ccccc1O)c1cc(-c2ncc3c(=O)c4ccccc4oc3n2)c(-c2ccccc2O)[nH]c1=O showed a TGI [1] of 47.1 µM, a TGI [2] of 73.1 µM and a TGI [3] of 69.3 µM. For the same compound, the TGI [4] was 27.7 µM, the TGI [5] was 62.4 µM and the TGI [6] was 57.1 µM. The TGI [7] was 38.2 µM, the TGI [8] was 53.2 µM and the TGI [9] was > 87.5 µM. The TGI [10] was 52 µM.
Work on N#Cc1ccc(C2Oc3ccc(Cl)cc3C=C2[N+](=O)[O-])cc1 (configuration not stated) yielded a TGI [1] of 6.75 µM, a TGI [2] of 3.3 µM and a TGI [3] of 1.03 µM. For the same compound, the TGI [4] was 3.31 µM, the TGI [5] was 3.04 µM and the TGI [6] was 6.31 µM. It also gave a TGI [7] of 3.21 µM, a TGI [8] of 3.91 µM and a TGI [9] of 6.58 µM. It also gave a TGI [10] of 2.83 µM.
For COc1ccc([C@H]2c3cc4c(cc3OC(O)(CO)[C@H]2C(=O)O)OCO4)c(OC)c1 (some centres not stated) (tested in a mixture with another compound), the TGI [1] was > 100 µM, the TGI [2] was > 100 µM and the TGI [3] was > 100 µM. For the same compound, the TGI [4] was > 100 µM, the TGI [5] was > 100 µM and the TGI [6] was > 100 µM. For the same compound, the TGI [7] was > 100 µM, the TGI [8] was > 100 µM and the TGI [9] was > 100 µM. The TGI [10] was > 100 µM.
COc1cc(/C(=C2/O[C@@H]([C@H]3COC(C)(C)O3)[C@H]3OC(C)(C)O[C@@H]23)c2ccc3c(c2)OCO3)cc(OC)c1OC was tested, and the GI50 [1] was > 25 µM, the TGI [1] was > 25 µM and the GI50 [2] was > 25 µM. For the same compound, the TGI [2] was > 25 µM, the GI50 [3] was > 25 µM and the TGI [3] was > 25 µM. For the same compound, the GI50 [4] was > 25 µM, the TGI [4] was > 25 µM and the GI50 [5] was > 25 µM. For the same compound, the TGI [5] was > 25 µM, the GI50 [6] was > 25 µM and the TGI [6] was > 25 µM. For the same compound, the GI50 [7] was > 25 µM, the TGI [7] was > 25 µM and the GI50 [8] was > 25 µM. For the same compound, the TGI [8] was > 25 µM, the GI50 [9] was > 25 µM and the TGI [9] was > 25 µM. For the same compound, the GI50 [10] was > 25 µM and the TGI [10] was > 25 µM.
For O=C1c2cc3c(cc2CC1Cc1ccc2c(c1)CCC2)CCC3 (configuration not stated), the TGI [1] was > 100 µM, the TGI [2] was > 100 µM and the TGI [3] was > 100 µM. For the same compound, the TGI [4] was > 100 µM, the TGI [5] was > 100 µM and the TGI [6] was > 100 µM. For the same compound, the TGI [7] was > 100 µM, the TGI [8] was > 100 µM and the TGI [9] was > 100 µM.
CCCCOc1ccc2c(c1)CC[C@@H]1[C@@H]2CC[C@]2(C)C(=O)N(CCCC)C(=O)C[C@@H]12 was tested, and the TGI [3] was > 100 µM, the TGI [4] was > 100 µM and the TGI [5] was > 100 µM. The TGI [6] was > 100 µM, the TGI [7] was > 100 µM and the TGI [8] was > 100 µM. For the same compound, the TGI [9] was > 100 µM and the TGI [10] was > 100 µM.
